Reference: PubChem BioAssay AID212 (DTP/NCI, 2004)
Several values for one entry are separate records, joined by “and”; a condition that tells them apart may be missing. Identical values can stand only once. Results filed as inconclusive are left out. Where a SMILES comes first, the peptide text is derived from it. The star is where a group is joined. Trt = c1ccc(C(c2ccccc2)(c2ccccc2)*)cc1; Cbz = O=C(OCc1ccccc1)*; Bn = c1ccc(C*)cc1; βAla = NCCC(=O)O

Tested on: BDF1 mice, colon carcinoma 38 sc, T/C %
Assay: NCI In Vivo Anticancer Drug Screen. Data for tumor model Colon Carcinoma 38 (subcutaneous) in B6D2F1 (BDF1) mice
Method in brief: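 Transplantable tumor in mice; compound-treated vs vehicle-dosed controls. Measured survival or tumor size; value = T ÷ C.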

[1] = endpoint: median tumor weight (est.), dose: 25.0 mg/kg/injection, schedule: Q07DX002 (ip), vehicle: Klucel (hydroxypropylcellulose) (HPC), higher = larger tumour
[2] = endpoint: median tumor weight (est.), dose: 50.0 mg/kg/injection, schedule: Q07DX002 (ip), vehicle: Klucel (hydroxypropylcellulose) (HPC), higher = larger tumour
[3] = endpoint: median tumor weight (est.), dose: 100.0 mg/kg/injection, schedule: Q07DX002 (ip), vehicle: Klucel (hydroxypropylcellulose) (HPC), higher = larger tumour
[4] = endpoint: median tumor weight (est.), dose: 200.0 mg/kg/injection, schedule: Q07DX002 (ip), vehicle: Klucel (hydroxypropylcellulose) (HPC), higher = larger tumour
[5] = endpoint: median tumor weight (est.), dose: 400.0 mg/kg/injection, schedule: Q07DX002 (ip), vehicle: Klucel (hydroxypropylcellulose) (HPC), higher = larger tumour
[6] = endpoint: median tumor weight (est.), dose: 12.5 mg/kg/injection, schedule: Q07DX002 (ip), vehicle: saline with Tween-80, higher = larger tumour
[7] = endpoint: median tumor weight (est.), dose: 6.25 mg/kg/injection, schedule: Q07DX002 (ip), vehicle: saline, higher = larger tumour
[8] = endpoint: median tumor weight (est.), dose: 50.0 mg/kg/injection, schedule: Q07DX002 (ip), vehicle: saline with Tween-80, higher = larger tumour
[9] = endpoint: median tumor weight (est.), dose: 100.0 mg/kg/injection, schedule: Q07DX002 (ip), vehicle: saline with Tween-80, higher = larger tumour
[10] = endpoint: median tumor weight (est.), dose: 25.0 mg/kg/injection, schedule: Q07DX002 (ip), vehicle: saline with Tween-80, higher = larger tumour

## O=C1CC2(C(=O)N1CN1CCCCC1)c1ccccc1-c1ccccc12
endpoint: median tumor weight (est.), dose: 12.5 mg/kg/injection, schedule: Q07DX002 (ip), vehicle: Klucel (hydroxypropylcellulose) (HPC), higher = larger tumour
  T/C: 58 % of control
[1]
  T/C: 97 % of control
[2]
  T/C: 68 % of control
[3]
  T/C: 102 % of control
[4]
  T/C: 101 % of control
[5]
  T/C: 81 % of control

## c1ccc([C@H]2CN3CCSC3=N2)cc1
endpoint: median tumor weight (est.), dose: 10.0 mg/kg/injection, schedule: Q07DX003 (ip), vehicle: saline, higher = larger tumour
  T/C: 77 % of control
endpoint: median tumor weight (est.), dose: 40.0 mg/kg/injection, schedule: Q07DX003 (ip), vehicle: saline, higher = larger tumour
  T/C: 45 % of control

## C=C1C(=O)C23[C@H](O)C1CC[C@H]2[C@]12COC3(O)[C@@H](O)[C@@H]1C(C)(C)CC[C@@H]2O
endpoint: median tumor weight (est.), dose: 1.56 mg/kg/injection, schedule: Q07DX002 (ip), vehicle: saline with Tween-80, higher = larger tumour
  T/C: 104 % of control
endpoint: median tumor weight (est.), dose: 3.12 mg/kg/injection, schedule: Q07DX002 (ip), vehicle: saline with Tween-80, higher = larger tumour
  T/C: 112 % of control and 96 % of control
endpoint: median tumor weight (est.), dose: 6.25 mg/kg/injection, schedule: Q07DX002 (ip), vehicle: saline with Tween-80, higher = larger tumour
  T/C: 100 % of control
[6]
  T/C: 80 % of control

## CCN(CC)CCOC(=O)Cc1cccc2c(=O)cc(-c3ccccc3)oc12
endpoint: median survival time, dose: 133.0 mg/kg/injection, schedule: Q07DX002 (ip), vehicle: saline, higher = longer survival
  T/C: 110 % of control
endpoint: median survival time, dose: 200.0 mg/kg/injection, schedule: Q07DX002 (ip), vehicle: saline, higher = longer survival
  T/C: 313 % of control
endpoint: median tumor weight (est.), dose: 3.12 mg/kg/injection, schedule: Q07DX002 (iv), vehicle: saline, higher = larger tumour
  T/C: 92 % of control
[7]
  T/C: 74 % of control
endpoint: median tumor weight (est.), dose: 6.25 mg/kg/injection, schedule: Q07DX002 (iv), vehicle: saline, higher = larger tumour
  T/C: 88 % of control
endpoint: median tumor weight (est.), dose: 12.5 mg/kg/injection, schedule: Q07DX002 (iv), vehicle: saline, higher = larger tumour
  T/C: 109 % of control
endpoint: median tumor weight (est.), dose: 25.0 mg/kg/injection, schedule: Q07DX002 (iv), vehicle: saline, higher = larger tumour
  T/C: 46 % of control
endpoint: median tumor weight (est.), dose: 28.0 mg/kg/injection, schedule: Q07DX002 (iv), vehicle: saline, higher = larger tumour
  T/C: 122 % of control
endpoint: median tumor weight (est.), dose: 37.5 mg/kg/injection, schedule: Q07DX002 (iv), vehicle: saline, higher = larger tumour
  T/C: 110 % of control
[2]
  T/C: 61 % of control
[8]
  T/C: 45 % of control
endpoint: median tumor weight (est.), dose: 50.0 mg/kg/injection, schedule: Q07DX009 (ip), vehicle: saline, higher = larger tumour
  T/C: 84 % of control
[9]
  T/C: 61 % of control
endpoint: median tumor weight (est.), dose: 100.0 mg/kg/injection, schedule: Q07DX009 (ip), vehicle: saline, higher = larger tumour
  T/C: 40 % of control
endpoint: median tumor weight (est.), dose: 112.0 mg/kg/injection, schedule: Q07DX002 (ip), vehicle: saline, higher = larger tumour
  T/C: 105 % of control
endpoint: median tumor weight (est.), dose: 150.0 mg/kg/injection, schedule: Q07DX002 (ip), vehicle: saline, higher = larger tumour
  T/C: 89 % of control

## CCNC(=O)OCc1c(COC(=O)NCC)c(-c2ccc(Cl)c(Cl)c2)n2c1CCC2
endpoint: median tumor weight (est.), dose: 3.12 mg/kg/injection, schedule: Q07DX002 (ip), vehicle: saline, higher = larger tumour
  T/C: 74 % of control
[7]
  T/C: 104 % of control
endpoint: median tumor weight (est.), dose: 12.5 mg/kg/injection, schedule: Q07DX002 (ip), vehicle: saline, higher = larger tumour
  T/C: 86 % of control
endpoint: median tumor weight (est.), dose: 25.0 mg/kg/injection, schedule: Q07DX002 (ip), vehicle: saline, higher = larger tumour
  T/C: 62 % of control
endpoint: median tumor weight (est.), dose: 50.0 mg/kg/injection, schedule: Q07DX002 (ip), vehicle: saline, higher = larger tumour
  T/C: 42 % of control

## Clc1cc(Cl)c(C[N+]23CN4CN(CN(C4)C2)C3)cc1Cl
[6]
  T/C: 80 % of control and 90 % of control
[10]
  T/C: 118 % of control

## COC(=O)C(CSC(c1ccccc1)(c1ccccc1)c1ccccc1)NC(=O)C(CSCc1ccccc1)NC(=O)CCNC(=O)OCc1ccccc1 (stereo not given) ({Cbz-βAla}-Cys(Bn)-Cys(Trt)-OMe; configuration not given here)
[1]
  T/C: 106 % of control
[2]
  T/C: 109 % of control
[3]
  T/C: 96 % of control
[4]
  T/C: 87 % of control
[5]
  T/C: 123 % of control

## CCCCOC(=O)/C=C(\Br)C(=O)OCCCC
[10]
  T/C: 76 % of control and 98 % of control
[8]
  T/C: 71 % of control and 85 % of control
[9]
  T/C: 84 % of control and 91 % of control
endpoint: median tumor weight (est.), dose: 200.0 mg/kg/injection, schedule: Q07DX002 (ip), vehicle: saline with Tween-80, higher = larger tumour
  T/C: 81 % of control and 85 % of control
endpoint: median tumor weight (est.), dose: 400.0 mg/kg/injection, schedule: Q07DX002 (ip), vehicle: saline with Tween-80, higher = larger tumour
  T/C: 69 % of control
